Several values for one entry are separate records, joined by “and”; a condition that tells them apart may be missing. Identical values can stand only once. Counter-ions that a name gives are not always drawn.
Assays:
Plasmodium falciparum [1] = assay: NOVARTIS: Inhibition of Plasmodium falciparum 3D7 (drug-susceptible) proliferation in erythrocyte-based infection assay; type: functional, organism-based
Huh-7 = assay: (§1) NOVARTIS: Cytotoxicity against human hepatocellular carcinoma cell line (Huh7); type: toxicity, cell-based
Plasmodium falciparum [2] = assay: NOVARTIS: Inhibition of Plasmodium falciparum W2 (drug-resistant) proliferation in erythrocyte-based infection assay; type: functional, organism-based; conditions: read-out: EC50
[3] = as §1; type: toxicity, cell-based, Huh-7; conditions: Huh7 cells (hepatocellular carcinoma cell line)

Compound | EC50 (Plasmodium falciparum [1]) | EC50 (Plasmodium falciparum [1]; Plasmodium falciparum, 3D7) [nM] | CC50 (Huh-7; huh-7, read-out: CC50) | EC50 (Plasmodium falciparum [2]) | CC50 (Huh-7; huh-7) | EC50 (Plasmodium falciparum [2]; Plasmodium falciparum, W2) [nM] | CC50 [3] [nM]
CCN(CC)C1SC=C(c2ccc([N+](=O)[O-])cc2)S1 (configuration not stated) | 549 nM | 446 | > 96000 nM | 911 nM and 390 nM | – | – | –
COC(=O)C1=CN(Cc2ccc(OC)cc2)C=C(C(=O)OC)C1c1cccc([N+](=O)[O-])c1 | – | 2120 | – | – | No fit | > 1250 | –
CCN1C=C/C(=C\c2cccc[n+]2C)c2ccccc21 | 1030 nM | 827 | > 100000 nM | 683 nM and 1960 nM | – | – | –
OCC[n+]1ccc(/C=C/c2c[nH]c3ccccc23)cc1 | 343 nM | 390 | > 100000 nM | 396 nM | – | 554 | –
C=C[C@H]1C[N@]2CC[C@H]1C[C@@H]2[C@@H](OC(=O)Cc1cccs1)c1ccnc2ccccc12 | 9.8 nM and 62.2 nM | – | > 10000 nM and 95100 nM | 78.7 nM | – | 46.6 | –
CCN1/C(=C/c2ccc3cc(C)ccc3[n+]2C)Sc2ccc3ccsc3c21 | 951 nM and 371 nM | – | > 10000 nM and 55900 nM | 843 nM | – | > 1250 | –
CCCCCC[n+]1ccccc1C=Cc1ccc(N(C)C)cc1 | 96.1 nM | – | 2410 nM | 211 nM | – | – | –
CCN1C(=Cc2sc3ccc(OC)cc3[n+]2CC)C=Cc2ccccc21 | 417 nM | – | 9870 nM | – | – | 249 | –
CCOc1ccc2nccc([C@@H](O)[C@@H]3C[C@@H]4CCN3C[C@@H]4CC)c2c1 [ETHYLHYDROCUPREINE HYDROCHLORIDE] | 39 nM | – | > 10000 nM | < 3.48 nM | – | – | –
CN(C)c1ccc(C=CC=Cc2cc[n+](C)cc2)cc1.[O-][Cl+3]([O-])([O-])[O-] | – | 770 | > 100000 nM | – | – | 532 | –
CC[n+]1c(/C=C2\Sc3ccc(OC)cc3N2C)ccc2cc(C)ccc21 | – | – | > 10000 nM and 21800 nM | 331 nM and 52 nM | – | – | –
CCOc1ccc(/C=C2/SC(=Nc3ccccc3)NC2=O)cc1OC | 662 nM and 1530 nM | – | > 100000 nM | – | – | – | –
Cn1cc(/C=C/c2cc[n+](C)cc2)c2ccccc21 | 216 nM | – | 7700 nM | – | – | – | –
CCN1C(=Cc2sc3ccccc3[n+]2CC)[Se]c2ccccc21 | 156 nM | 230 | 5340 nM and 11800 nM | – | – | – | –
Cc1cc(C)cc(-n2c(C)cc(/C=C3\SC(=Nc4ccc(Cl)cc4)NC3=O)c2C)c1 | – | – | > 100000 nM | 81.1 nM and 704 nM | – | – | –
CC[n+]1c(/C=C2\Sc3cc(NC(C)=O)ccc3N2C)ccc2ccccc21 | 373 nM and 72.2 nM | – | > 100000 nM | – | – | – | –
C/C(C=C1Sc2ccc3ccoc3c2N1CCO)=C\c1sc2ccc3occc3c2[n+]1CCO | 6890 nM and 1540 nM | – | > 100000 nM | – | – | – | –
Cc1cc(/C=C2\SC(=Nc3ccccc3)NC2=O)c(C)n1-c1ccccc1 | – | – | > 99700 nM | 12.8 nM and 86.2 nM | – | – | –
CC[n+]1c(/C=C2\Sc3ccc(C)cc3N2CCO)ccc2ccccc21 | – | – | > 10000 nM and 29400 nM | – | – | – | –
Cc1ccc(N=C2S/C(=C\c3c(Cl)cccc3Cl)C(=O)N2c2ccc(C)c(C)c2)cc1C | – | – | > 100000 nM | 1340 nM and 4810 nM | – | – | –
Cc1ccc2c(c1)N(C)/C(=C/c1cccc[n+]1C)S2 | 825 nM | – | > 10000 nM and 22700 nM | – | – | – | –
CN(C)c1ccc(C=Cc2cccc[n+]2C)cc1 | 314 nM | 248 | 3030 nM and > 10000 nM | – | – | – | –
CC[n+]1c(/C=C2\Sc3ccccc3N2CCO)ccc2cc(C)ccc21 | – | – | > 10000 nM and 56300 nM | 142 nM | – | > 248 | –

Compound | EC50 (Plasmodium falciparum [1]) | EC50 (Plasmodium falciparum [1]; Plasmodium falciparum, 3D7) [nM] | CC50 (Huh-7; huh-7, read-out: CC50) | EC50 (Plasmodium falciparum [2]) | CC50 (Huh-7; huh-7) | EC50 (Plasmodium falciparum [2]; Plasmodium falciparum, W2) [nM] | CC50 [3] [nM]
O=C(Nc1ccc2nc3n(c(=O)c2c1)CCCCC3)C(=O)N1CCN(c2ccccc2)CC1 | – | 133 | – | – | – | 30.8 | > 100000
CC(C)CNCc1cc(-c2ccc(F)cc2)ccc1O | – | 104 | – | – | – | 10 | 58600
COC(=O)c1ccc2c(c1)C(=O)c1ccccc1C2C1c2ccccc2C(=O)c2cc(C(=O)OC)ccc21 (configuration not stated) | – | 856 | – | – | – | 397 | > 10000
COc1cccc2cc(-c3csc(NC(=O)CCC(=O)NC4CCCC4)n3)c(=O)oc12 | – | > 1250 | – | – | – | > 1070 | > 10000
COc1ccc(NC2=C(c3ccc(C(F)(F)F)cc3)C(=O)c3ccccc32)cc1 | – | 339 | – | – | – | 772 | > 100000
COCCCNC(=O)c1c(C)nc2scc(C)n12 | – | > 1080 | – | – | – | > 1450 | > 10000
Cc1ccc2c(c1)-c1c(ssc1=S)C(C)(C)N2C(=O)c1ccco1 | – | 276 | – | – | – | 254 | > 100000
Cc1c(Cc2ccccc2)sc(N=Cc2ccc(Br)s2)c1C(N)=O | – | 445 | – | – | – | 314 | > 10000
CCN(CC)CCCN(Cc1cc2cc(OC)c(OC)cc2[nH]c1=O)C(=S)Nc1cccc(Cl)c1 | – | 698 | – | – | – | 707 | 18900
O=[N+]([O-])c1cc(NC2OC(CO)C(OC3OC(CO)C(O)C(O)C3O)C(O)C2O)ccc1Cl (configuration not stated) | – | > 848 | – | – | – | > 1250 | > 10000
Cc1cccc(NC(c2ccccc2F)c2ccc3cccnc3c2O)n1 (configuration not stated) | – | 2940 | – | – | – | 331 | > 61800
Cc1ccc(CN2C(=O)C(O)(CC(=O)c3ccccc3)c3ccccc32)cc1 (configuration not stated) | – | 7010 | – | – | – | 8960 | > 64500
Cc1oc2c(c1C(=O)N1CCN(C)CC1)C(=O)c1ccccc1C2=O | – | 829 | – | – | – | 335 | 5460
Cn1nc(C(=O)Nc2ccc(F)c(Cl)c2)c2c1-c1ccccc1S(=O)(=O)C2 | – | > 12500 | – | – | – | 3610 | > 100000
Nc1nc(N)c2c(Oc3ccccc3)cccc2n1 | – | 448 | – | – | – | 26.7 | > 10000
Cc1cc2c(cc1S(=O)(=O)N(C)C1CCCCC1)OCC(=O)N2 | – | > 1250 | – | – | – | > 569 | > 10000
CCOc1ccc2c(c1)c1nnc(-c3ccc4c(c3)OCO4)c-1cn2Cc1ccc(Cl)cc1 | – | 8390 | – | – | – | 4980 | 14600
Cc1cc(Oc2ncnc(N(C)CC(=O)OC(C)(C)C)c2[N+](=O)[O-])c2nncn2n1 | – | > 1630 | – | – | – | > 684 | > 10000
CCN1/C(=C/c2sc3ccc(I)cc3[n+]2CC)C=Cc2ccccc21 | – | 550 | – | – | – | 364 | > 10000
COc1ccc(CCN2C(=O)c3ccc(Oc4ccc(NC(=O)c5oc(=O)c6ccccc6c5-c5ccccc5)cc4)cc3C2=O)cc1OC | – | > 12500 | – | – | – | 4800 | > 100000
C[N+]1(CCOC(=O)CCC(=O)OCC[N+]2(C)CCCCCC2)CCCCCC1 | – | > 479 | – | – | – | > 1250 | > 10000
Cc1ccc(-c2c3c(nc4sc(C(=O)Nc5ccc(Cl)cc5)c(N)c24)CCCC3)o1 | – | 8310 | – | – | – | 6780 | > 100000
COc1ccc(-c2c(C(F)(F)F)nn(C)c2NC(=O)Nc2ccc(F)cc2F)cc1 | – | 242 | – | – | – | 356 | 78200

Compound | EC50 (Plasmodium falciparum [1]) | EC50 (Plasmodium falciparum [1]; Plasmodium falciparum, 3D7) [nM] | CC50 (Huh-7; huh-7, read-out: CC50) | EC50 (Plasmodium falciparum [2]) | CC50 (Huh-7; huh-7) | EC50 (Plasmodium falciparum [2]; Plasmodium falciparum, W2) [nM] | CC50 [3] [nM]
COc1cc(OC)c(NC(=O)c2ccc(N3CC4CC(C3)c3cccc(=O)n3C4)c([N+](=O)[O-])c2)cc1Cl (configuration not stated) | – | 9690 | – | – | – | 1930 | > 100000
COc1ccc(C(=O)ON=C(N)Cc2ccc(Cl)cc2Cl)cc1[N+](=O)[O-] | – | 4980 | – | – | – | 675 | > 100000
COc1ccc(C2CC3=NC(C)=C(C(=O)OC(C)C)C(c4ccccc4Cl)C3=C(O)C2)cc1OC (configuration not stated) | – | 6.21 | – | – | – | 4.11 | > 100000
CCOC(=O)c1ccc2c(c1)[n+](CC)c(/C=C/N(C)c1ccccc1)n2CC | – | 272 | – | – | – | 588 | 34400
Cc1cccc(C)c1NC(=O)N1CCN(C2CCCCC2)CC1 | – | > 12500 | – | – | – | > 6560 | > 100000
Cc1nc2c(C)cccc2c(O)c1CC=C(Cl)Cl | – | 1110 | – | – | – | 609 | > 100000
COc1ccc(C(=O)Nc2ccc3nsnc3c2)cc1OC | – | > 1250 | – | – | – | > 1250 | > 10000
CC(C)CNC(=O)c1cnc(NCCCn2ccnc2)nc1NC1CCCC1 | – | 678 | – | – | – | > 298 | > 10000
COc1ccccc1Cn1c(SCC(=O)Nc2cccc(C(F)(F)F)c2)nc2ccc(Br)cc2c1=O | – | 735 | – | – | – | 831 | > 100000
Cc1ccc(Nc2nc(NCc3ccccc3)c3ccccc3n2)cc1 | – | 184 | – | – | – | 241 | 10900
S=C(NN=Cc1ccccn1)NC1CC2CC1C1C=CCC21 (configuration not stated) | – | 123 | – | – | – | 109 | > 1140
COc1cc2c(cc1C=C(C#N)c1cccc(C)c1)OCO2 | – | > 9740 | – | – | – | 1310 | > 100000
c1ccc(-c2cccc(-c3ccccn3)n2)nc1 [TERPYRIDINE] | – | 154 | – | – | – | 39.2 | 12600
Cc1ccccc1Oc1ccc(S(=O)(=O)NC(CC(C)C)C(=O)O)cc1 (configuration not stated) | – | > 846 | – | – | – | > 1250 | > 10000
Cc1cc(Nc2ccc(Cl)cc2)n2nnnc2n1 | – | > 1640 | – | – | – | 1750 | > 10000
COc1ccc(CCN2C(=O)N(CC(C)C)C(=O)C23CCN(Cc2ccccc2O)CC3)cc1 | – | 225 | – | – | – | 93.1 | > 100000
COc1cc2c(c(OC)c1CN1CCN(c3ccccc3)CC1)C(=O)c1ccccc1C2=O | – | 130 | – | – | – | 166 | > 10000
c1ccc(Nc2nc(NCC3CCCO3)c3ccccc3n2)cc1 (configuration not stated) | – | 114 | – | – | – | 169 | > 10000
CC1(C)C2CCC1(C)C(NCc1ccccc1O)C2 (configuration not stated) | – | 107 | – | – | – | 31.8 | 48600
CSc1oc(C(C)(C)C)nc1[P+](c1ccccc1)(c1ccccc1)c1ccccc1 | – | 296 | – | – | – | 438 | 6820
CCCOC(=O)C1=C(C)NC2=C(C(=O)CC(c3ccc(OC)cc3)C2)C1c1cccc(F)c1 (configuration not stated) | – | 72.4 | – | – | – | 32.9 | > 100000
OC(CNC1CCCCC1)Cn1c2ccc(Cl)cc2c2cc(Cl)ccc21 (configuration not stated) | – | 333 | – | – | – | 116 | 57300
CCOC(=O)NN=C(C)c1ccc(C(C)=NNC(=O)OCC)cc1 | – | > 5590 | – | – | – | 747 | > 100000
